Results from patent US5998648A, “Anticancer (IV) complexes for oral administration and a method of making the same” (Korea Institute of Science and Technology, priority 1997, dated 1999).

Columns and labels:
[1] = Acute toxicity; format: in vivo
[2] = test system: L1210 leukemia; assay: Oral anticancer activity (survival time of L1210 leukemia-implanted BDF1 mice); format: in vivo, BDF1 mice; L1210 cells from DBA/2 mice; conditions: for Increase ratio in the survival time (T/C, %): Dose 150 mg/kg, daily for consecutive five days, L1210 implanted intraperitoneally
Experimental: The oral anticancer activity of the hexa-coordinate platinum(IV) complexes of the present invention was evaluated as follows. A group of eight 6-week old BDF1 mice was employed to test for each compound. 1×10^5 cells of L1210 leukemia in ascitic fluid from DBA/2 mice were implanted intraperitoneally in each mouse. The test solutions containing platinum(IV) complexes at different concentrations were orally administered daily for consecutive five days. The survival time of each group of the mice was recorded. The percent increase in the survival time as compared to the control group, T/C (%), was calculated as an indicator of the anticancer activity. The results are summarized in Table I. Drugs that have more than 125% of the T/C (%) values can be considered as efficient anticancer drugs. […] It is expected that the complex in Example 1 could be practically applicable since the acute toxicity was also low (LD50 =300 mg/kg)

CCC(=O)[O][Pt]([O]C(=O)CC)([O]C(=O)CC)[O]C(=O)CC.NC1CCCCC1N [Example 1]
acute toxicity / toxicity (in words) ([1]; in vivo): low
acute toxicity LD50 ([1]; species and route not given): 300 mg/kg
anticancer activity (in words) [2]: excellent anticancer activity
Increase ratio in the survival time (T/C, %) [2]: 160.9%

CCCC(=O)[O][Pt]1([O]C(=O)CCC)([O]C(=O)CCC)([O]C(=O)CCC)[NH]C2CCCCC2[NH]1 (stereo not drawn) [Example 2]
Increase ratio in the survival time (T/C, %) [2]: 139.1%

CCCC(=O)[O][Pt]1([O]C(=O)CCC)([O]C(=O)CCC)([O]C(=O)CCC)[NH]CC[NH]1 [Example 4, (NH2 CH2 CH2 NH2)Pt(OOCC3 H7)4]
Increase ratio in the survival time (T/C, %) [2]: 115.4%

[OH][Pt]1([OH])([OH])([OH])[NH]C2CCCCC2[NH]1 (stereo not drawn) [compound 1, (DACH)Pt(OH)4, reference compound]
Increase ratio in the survival time (T/C, %) [2]: 108.8%

(DACH)PtCl2 (OAc)4 [compound 2, reference compound]
Increase ratio in the survival time (T/C, %) [2]: 103.1%

[NH2 CH2 C(CH3)2 CH2 NH2 ]Pt(OOCC2 H5)4 [Example 6]
Increase ratio in the survival time (T/C, %) [2]: 130.8%
